Data: PubChem BioAssay (NCI)
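Interpolation was linear, between the two tested concentrations surrounding the appropriate level; five concentrations were tested over 48 hours in 96-well plates. GI50 marks 50% less growth. TGI is the concentration that stops growth completely.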

How the values were obtained:
Assay in all cases: NCI tumour cell line growth inhibition, 48 h
786-0 renal = test system: 786-0 renal
A498 renal = test system: A498 renal
A549 NSCLC = test system: A549 NSCLC
ACHN renal = test system: ACHN renal
BT-549 breast = test system: BT-549 breast
CAKI-1 renal = test system: CAKI-1 renal
CCRF-CEM leukemia = test system: CCRF-CEM leukemia
DU-145 prostate = test system: DU-145 prostate
EKVX NSCLC = test system: EKVX NSCLC
HCC-2998 colon = test system: HCC-2998 colon
HCT-116 colon = test system: HCT-116 colon
HCT-15 colon = test system: HCT-15 colon
HL-60(TB) leukemia = test system: HL-60(TB) leukemia
HOP-62 NSCLC = test system: HOP-62 NSCLC
HOP-92 NSCLC = test system: HOP-92 NSCLC
HS 578T breast = test system: HS 578T breast
HT29 colon = test system: HT29 colon
IGROV1 ovarian = test system: IGROV1 ovarian
K-562 leukemia = test system: K-562 leukemia
KM12 colon = test system: KM12 colon
LOX IMVI melanoma = test system: LOX IMVI melanoma
MCF7 breast = test system: MCF7 breast
MDA-MB-231 breast = test system: MDA-MB-231 breast
MOLT-4 leukemia = test system: MOLT-4 leukemia
NCI-H226 lung = test system: NCI-H226 lung
NCI-H23 lung = test system: NCI-H23 lung
NCI-H460 lung = test system: NCI-H460 lung
NCI-H522 lung = test system: NCI-H522 lung
NCI/ADR-RES ovarian = test system: NCI/ADR-RES ovarian
OVCAR-4 ovarian = test system: OVCAR-4 ovarian
OVCAR-5 ovarian = test system: OVCAR-5 ovarian
OVCAR-8 ovarian = test system: OVCAR-8 ovarian
PC-3 prostate = test system: PC-3 prostate
RPMI-8226 leukemia = test system: RPMI-8226 leukemia
RXF 393 renal = test system: RXF 393 renal
SF-268 CNS = test system: SF-268 CNS
SF-295 CNS = test system: SF-295 CNS
SF-539 CNS = test system: SF-539 CNS
SK-MEL-28 melanoma = test system: SK-MEL-28 melanoma
SK-MEL-5 melanoma = test system: SK-MEL-5 melanoma
SK-OV-3 ovarian = test system: SK-OV-3 ovarian
SN12C renal = test system: SN12C renal
SNB-19 CNS = test system: SNB-19 CNS
SNB-75 CNS = test system: SNB-75 CNS
SR leukemia = test system: SR leukemia
SW-620 colon = test system: SW-620 colon
T-47D breast = test system: T-47D breast
TK-10 renal = test system: TK-10 renal
U251 CNS = test system: U251 CNS
UACC-257 melanoma = test system: UACC-257 melanoma
UACC-62 melanoma = test system: UACC-62 melanoma
UO-31 renal = test system: UO-31 renal

## COc1ccc(Cn2cc3c(c2-c2cc(OC)c(OC)c(OC)c2)CCCc2cnoc2-3)cc1
786-0 renal
  GI50: 669 nM
  TGI: > 100000 nM
A498 renal
  GI50: 696 nM
  TGI: 7110 nM
A549 NSCLC
  GI50: 2340 nM
  TGI: > 100000 nM
ACHN renal
  GI50: 900 nM
  TGI: > 100000 nM
BT-549 breast
  GI50: 482 nM
  TGI: > 100000 nM
CAKI-1 renal
  GI50: 490 nM
  TGI: > 100000 nM
CCRF-CEM leukemia
  GI50: 415 nM
  TGI: > 100000 nM
DU-145 prostate
  GI50: 4110 nM
  TGI: > 100000 nM
EKVX NSCLC
  GI50: 3000 nM
  TGI: > 100000 nM
HCC-2998 colon
  GI50: 1610 nM
  TGI: 10600 nM
HCT-116 colon
  GI50: 391 nM
  TGI: > 100000 nM
HCT-15 colon
  GI50: 478 nM
  TGI: > 100000 nM
HL-60(TB) leukemia
  GI50: 350 nM
  TGI: > 100000 nM
HOP-62 NSCLC
  GI50: 2220 nM
  TGI: > 100000 nM
HOP-92 NSCLC
  GI50: 1270 nM
  TGI: > 100000 nM
HS 578T breast
  GI50: 1540 nM
  TGI: > 100000 nM
HT29 colon
  GI50: 1130 nM
  TGI: > 100000 nM
IGROV1 ovarian
  GI50: 562 nM
  TGI: > 100000 nM
K-562 leukemia
  GI50: 422 nM
  TGI: > 100000 nM
KM12 colon
  GI50: 692 nM
  TGI: > 100000 nM
LOX IMVI melanoma
  GI50: 997 nM
  TGI: > 100000 nM
MCF7 breast
  GI50: 437 nM
  TGI: > 100000 nM
MDA-MB-231 breast
  GI50: 2540 nM
  TGI: > 100000 nM
MOLT-4 leukemia
  GI50: 802 nM
  TGI: > 100000 nM
NCI-H226 lung
  GI50: 1990 nM
  TGI: > 100000 nM
NCI-H23 lung
  GI50: 2620 nM
  TGI: > 100000 nM
NCI-H460 lung
  GI50: 500 nM
  TGI: > 100000 nM
NCI-H522 lung
  GI50: 975 nM
  TGI: 6900 nM
NCI/ADR-RES ovarian
  GI50: 544 nM
  TGI: > 100000 nM
OVCAR-4 ovarian
  GI50: 4970 nM
  TGI: > 100000 nM
OVCAR-5 ovarian
  GI50: 3720 nM
  TGI: > 100000 nM
OVCAR-8 ovarian
  GI50: 4300 nM
  TGI: > 100000 nM
PC-3 prostate
  GI50: 849 nM
  TGI: > 100000 nM
RPMI-8226 leukemia
  GI50: 1560 nM
  TGI: > 100000 nM
RXF 393 renal
  GI50: 658 nM
  TGI: 5040 nM
SF-268 CNS
  GI50: 4720 nM
  TGI: > 100000 nM
SF-295 CNS
  GI50: 511 nM
  TGI: > 100000 nM
SF-539 CNS
  GI50: 700 nM
  TGI: 5170 nM
SK-MEL-28 melanoma
  GI50: > 100000 nM
  TGI: > 100000 nM
SK-MEL-5 melanoma
  GI50: 2000 nM
  TGI: > 100000 nM
SK-OV-3 ovarian
  GI50: 4180 nM
  TGI: > 100000 nM
SN12C renal
  GI50: 4600 nM
  TGI: > 100000 nM
SNB-19 CNS
  GI50: 1530 nM
  TGI: > 100000 nM
SNB-75 CNS
  GI50: 869 nM
  TGI: 4750 nM
SR leukemia
  GI50: 359 nM
  TGI: > 100000 nM
SW-620 colon
  GI50: 474 nM
  TGI: > 100000 nM
T-47D breast
  GI50: 1850 nM
  TGI: > 100000 nM
TK-10 renal
  GI50: > 100000 nM
  TGI: > 100000 nM
U251 CNS
  GI50: 4470 nM
  TGI: > 100000 nM
UACC-257 melanoma
  GI50: > 100000 nM
  TGI: > 100000 nM
UACC-62 melanoma
  GI50: 906 nM
  TGI: > 100000 nM
UO-31 renal
  GI50: 924 nM
  TGI: > 100000 nM
